We go through 16 molecules from patent US12139508B2, “Steroid derivative regulators, method for preparing the same, and uses thereof” (JIANGSU HANSOH PHARMACEUTICAL GROUP CO., LTD., priority 2018, dated 2024).

The experiment concerns the target GABA-A receptor. The experiment in a line: 35S-TBPS binding assay (GABAA receptor binding ability test). Also noted: species or system Sprague-Dawley rat. Particulars: rat cerebral cortex cell membrane, 5 μM GABA, 2 nM 35S-TBPS; read-out: 35S-TBPS bindng test: IC50 on inhibiting the TBPS binding activity. The protocol: 1.2 Experimental Procedures 1.2.1 Extraction of Cerebral Cortex Cell Membrane:
1. The cerebral cortex of male Sprague-Dawley rat was isolated.
2. A pre-chilled 0.32 M sucrose solution (one tablet of protease inhibitor was added per 100 ml) was added to the cerebral cortex (the volume of sucrose solution was 10 times the volume of the cerebral cortex). The mixture was crushed with a 50 mL glass tissue homogenizer in batches and mixed well.
3. The mixture was centrifuged at 1500 g, 4° C. for 10 minutes, and the supernatant was collected.
4. The mixture was centrifuged at 20000 g, 4° C. for 30 minutes, and the supernatant was discarded.
5. The precipitate was resuspended with the pre-chilled phosphate buffer saline (PBS) (one tablet of protease inhibitor was added per 100 ml). An average of 4 ml of PBS was added per rat, and the mixture was mixed well by a glass tissue homogenizer.
6. The mixture was centrifuged at 10000 g, 4° C. for 10 minutes, and the supernatant was discarded.
7. Steps 5 and 6 were repeated three times.
8. Finally, the precipitate was resuspended with 4 volumes of PBS. The resulting solution was dispensed, frozen in liquid nitrogen, and stored at −80° C.
9. The protein concentration was measured by the bicinchoninic acid (BCA) method.
1.2.2 ^35S-TBPS Binding Assay
1. 230 μL of PBS was added to each well of a well plate with 1.1 ml volume.
2. 60 μL of the cerebral cortex cell membrane (5 μg/μL) solution was added to each well, and the mixture was mixed well.
3. The test compound (3 μL per well) was added, and the plate was incubated at 25° C. for 5 minutes. The DMSO concentration was 1%. The initial compound concentration was 1 μM, and a 3-fold dilution in gradient was carried out to obtain a total of 8 gradients and 2 replicates. 1% DMSO was used as a negative control, and 10 μM P026-2 was used as a positive control.
4. GABA was added at a final concentration of 5 μM, and incubated at 25° C. for 5 minutes. 1 mM GABA solution was formulated, and 1.5 μL of the solution was added to each well.
5. ^35S-TBPS was added at a final concentration of 2 nM. The concentration of isotope mother solution was 9.7 μM. After dilution with PBS for 100 times, 6 μL of the diluted isotope solution was added to each well.
6. The plate was incubated at 4° C. for 20 hours.
7. The FilterMate GF/C plate was pre-treated with 0.5% PEI, and incubated at 4° C. for 1 hour.
8. The FilterMate GF/C plate was washed with Universal Harvester twice, 50 ml PBS each time.
9. The reaction solution was transferred to the GF/C plate, and each well was washed 4 times with 900 μL of PBS.
10. The washed GF/C plate was placed at 55° C. and dried for 10 minutes.
11. 40 μL of scintillation solution was added to each well, and the CPM value was read with TopCount.
1.2.3 Experimental Data Processing Method:
In the experiment, the CPM (counts per minute) value was read with TopCount. According to the readings of the High control (DMSO) and the Low control ([…] of the positive compound) experimental groups, the […] inhibition was calculated based on the following formula: % Inhibition=100×(CPMHigh control−CPMSample)/(CPMHigh control−CPMLow control)
The IC50 of the compound was calculated according to the following 4-parameter nonlinear logic formula: Y=Bottom+(Top−Bottom)/(1+10^((Log IC50−X)*Hill Slope)),
wherein: • X represents the log of compound concentration, • Y represents the 0 Inhibition.
The effect of the compound of the present invention on the TBPS binding activity was determined by the above test, and the measured IC50 values are shown in Table 1.

As a reminder, the IC50 is the point on the concentration scale where inhibition reaches its midpoint. With `CC(=O)[C@H]1[C@H]2C[C@H]2[C@H]2[C@@H]3CC[C@@H]4C[C@](C)(O)CC[C@@H]4[C@H]3CC[C@@]21C` [Example 1, 1-((2R,4aS,4bR,6aS,7S,7aS,8aR,8bR,8cR,10aR)-2-Hydroxy-2,6a-dimethyloctadecahydrocyclopropa[4,5]cyclopenta[1,2-a]phenanthren-7-yl)ethan-1-one], the IC50 was 15 nM.

As for `C[C@@]1(O)CC[C@H]2[C@H](CC[C@@H]3[C@@H]2CC[C@@]2(C)[C@H]3[C@@H]3C[C@@H]3[C@@H]2C(=O)Cn2nccn2)C1` [Example 7, 1-((2R,4aS,4bR,6aS,7S,7aS,8aR,8bR,8cR,10aR)-2-Hydroxy-2,6a-dimethyloctadecahydrocyclopropa[4,5]cyclopenta[1,2-a]phenanthren-7-yl)-2-(2H-1,2,3-triazol-2-yl)ethan-1-one], the half-maximal inhibitory concentration (IC50) was found to be 14.7 nM.

For the molecule `C[C@@]1(O)CC[C@H]2[C@H](CC[C@@H]3[C@@H]2CC[C@@]2(C)[C@H]3[C@@H]3C[C@@H]3[C@@H]2C(=O)Cn2ccnn2)C1` [Example 8, 1-((2R,4aS,4bR,6aS,7S,7aS,8aR,8bR,8cR,10aR)-2-Hydroxy-2,6a-dimethyloctadecahydrocyclopropa[4,5]cyclopenta[1,2-a]phenanthren-7-yl)-2-(1H-1,2,3-triazol-1-yl)ethan-1-one], the IC50 came out at 42 nM.

On to `C[C@@]1(O)CC[C@H]2[C@H](CC[C@@H]3[C@@H]2CC[C@@]2(C)[C@H]3[C@@H]3C[C@@H]3[C@@H]2C(=O)Cn2cc(Cl)cn2)C1` [Example 18, 2-(4-Chloro-1H-pyrazol-1-yl)-1-((2R,4aS,4bR,6aS,7S,7aS,8aR,8bR,8cR,10aR)-2-hydroxy-2,6a-dimethyloctadecahydrocyclopropa[4,5]cyclopenta[1,2-a]phenanthren-7-yl)ethan-1-one], for which the concentration for half-maximal inhibition (IC50) turned out to be 6.4 nM.

On to `C[C@@]1(O)CC[C@H]2[C@H](CC[C@@H]3[C@@H]2CC[C@@]2(C)[C@H]3[C@@H]3C[C@@H]3[C@@H]2C(=O)Cn2cc(C#N)c(C3CC3)n2)C1` [Example 33, 3-Cyclopropyl-1-(2-((2R,4aS,4bR,6aS,7S,7aS,8aR,8bR,8cR,10aR)-2-hydroxy-2,6a-dimethyloctadecahydrocyclopropa[4,5]cyclopenta[1,2-a]phenanthren-7-yl)-2-oxoethyl)-1H-pyrazole-4-carbonitrile], for which the IC50 was 18.3 nM.

`C[C@@]1(O)CC[C@H]2[C@H](CC[C@@H]3[C@@H]2CC[C@@]2(C)[C@H]3[C@@H]3C[C@@H]3[C@@H]2C(=O)Cn2ncc(C#N)c2C2CC2)C1` [Example 34, 5-Cyclopropyl-1-(2-((2R,4aS,4bR,6aS,7S,7aS,8aR,8bR,8cR,10aR)-2-hydroxy-2,6a-dimethyloctadecahydrocyclopropa[4,5]cyclopenta[1,2-a]phenanthren-7-yl)-2-oxoethyl)-1H-pyrazole-4-carbonitrile]: the IC50 was found to be 28.1 nM.

Turning to `Cc1nn(CC(=O)[C@H]2[C@H]3C[C@H]3[C@H]3[C@@H]4CC[C@@H]5C[C@](C)(O)CC[C@@H]5[C@H]4CC[C@@]32C)cc1C#N` [Example 37A, 1-(2-((2R,4aS,4bR,6aS,7S,7aS,8aR,8bR,8cR,10aR)-2-Hydroxy-2,6a-dimethyloctadecahydrocyclopropa[4,5]cyclopenta[1,2-a]phenanthren-7-yl)-2-oxoethyl)-3-methyl-1H-pyrazole-4-carbonitrile], the IC50 worked out at 15.4 nM.

Turning to `Cc1c(C#N)cnn1CC(=O)[C@H]1[C@H]2C[C@H]2[C@H]2[C@@H]3CC[C@@H]4C[C@](C)(O)CC[C@@H]4[C@H]3CC[C@@]21C` [Example 37B, 1-(2-((2R,4aS,4bR,6aS,7S,7aS,8aR,8bR,8cR,10aR)-2-Hydroxy-2,6a-dimethyloctadecahydrocyclopropa[4,5]cyclopenta[1,2-a]phenanthren-7-yl)-2-oxoethyl)-5-methyl-1H-pyrazole-4-carbonitrile], the IC50 was found to be 15.4 nM.

`C[C@@]1(O)CC[C@H]2[C@H](CC[C@@H]3[C@@H]2CC[C@@]2(C)[C@H]3[C@@H]3C[C@@H]3[C@@H]2C(=O)Cn2cc3ccncc3n2)C1` [Example 41, 1-((2R,4aS,4bR,6aS,7S,7aS,8aR,8bR,8cR,10aR)-2-hydroxy-2,6a-dimethyloctadecahydrocyclopropa[4,5]cyclopenta[1,2-a]phenanthren-7-yl)-2-(2H-pyrazolo[3,4-c]pyridin-2-yl)ethan-1-one]: the IC50 was 22.7 nM.

In the case of `C[C@@]1(O)CC[C@H]2[C@H](CC[C@@H]3[C@@H]2CC[C@@]2(C)[C@H]3[C@@H]3C[C@@H]3[C@@H]2C(=O)Cn2ncc3ccncc32)C1` [Example 42, 1-((2R,4aS,4bR,6aS,7S,7aS,8aR,8bR,8cR,10aR)-2-hydroxy-2,6a-dimethyloctadecahydrocyclopropa[4,5]cyclopenta[1,2-a]phenanthren-7-yl)-2-(1H-pyrazolo[3,4-c]pyridin-1-yl)ethan-1-one], the IC50 was 38.3 nM.

Turning to `C[C@@]1(O)CC[C@H]2[C@H](CC[C@@H]3[C@@H]2CC[C@@]2(C)[C@H]3[C@@H]3C[C@@H]3[C@@H]2C(=O)Cn2cc(F)cn2)C1` [Example 46, 2-(4-Fluoro-1H-pyrazol-1-yl)-1-((2R,4aS,4bR,6aS,7S,7aS,8aR,8bR,8cR,10aR)-2-hydroxy-2,6a-dimethyloctadecahydrocyclopropa[4,5]cyclopenta[1,2-a]phenanthren-7-yl)ethan-1-one], the IC50 was found to be 28.7 nM.

Consider `CCOC(=O)c1cnn(CC(=O)[C@H]2[C@H]3C[C@H]3[C@H]3[C@@H]4CC[C@@H]5C[C@](C)(O)CC[C@@H]5[C@H]4CC[C@@]32C)c1` [Example 51, Ethyl 1-(2-((2R,4aS,4bR,6aS,7S,7aS,8aR,8bR,8cR,10aR)-2-hydroxy-2,6a-dimethyloctadecahydrocyclopropa[4,5]cyclopenta[1,2-a]phenanthren-7-yl)-2-oxoethyl)-1H-pyrazole-4-carboxylate], for which the IC50 was 5 nM.

Consider `C[C@@]1(O)CC[C@H]2[C@H](CC[C@@H]3[C@@H]2CC[C@@]2(C)[C@H]3[C@@H]3C[C@@H]3[C@@H]2C(=O)Cn2cc(C(=O)N3CC(F)(F)C3)cn2)C1` [Example 52], for which the IC50 amounted to 65 nM.

Consider `COc1ccc2nn(CC(=O)[C@H]3[C@H]4C[C@H]4[C@H]4[C@@H]5CC[C@@H]6C[C@](C)(O)CC[C@@H]6[C@H]5CC[C@@]43C)nc2c1` [Example 53, 1-((2R,4aS,4bR,6aS,7S,7aS,8aR,8bR,8cR,10aR)-2-Hydroxy-2,6a-dimethyloctadecahydrocyclopropa[4,5]cyclopenta[1,2-a]phenanthren-7-yl)-2-(5-methoxy-2H-benzo[d][1,2,3]triazol-2-yl)ethan-1-one], for which the IC50 stood at 12.3 nM.

Take `COc1ccc2nnn(CC(=O)[C@H]3[C@H]4C[C@H]4[C@H]4[C@@H]5CC[C@@H]6C[C@](C)(O)CC[C@@H]6[C@H]5CC[C@@]43C)c2c1` [Example 54A, 1-((2R,4aS,4bR,6aS,7S,7aS,8aR,8bR,8cR,10aR)-2-Hydroxy-2,6a-dimethyloctadecahydrocyclopropa[4,5]cyclopenta[1,2-a]phenanthren-7-yl)-2-(6-methoxy-1H-benzo[d][1,2,3]triazol-1-yl)ethan-1-one]: the IC50 is 11.8 nM.

As to `COc1ccc2c(c1)nnn2CC(=O)[C@H]1[C@H]2C[C@H]2[C@H]2[C@@H]3CC[C@@H]4C[C@](C)(O)CC[C@@H]4[C@H]3CC[C@@]21C` [Example 54B, 1-((2R,4aS,4bR,6aS,7S,7aS,8aR,8bR,8cR,10aR)-2-Hydroxy-2,6a-dimethyloctadecahydrocyclopropa[4,5]cyclopenta[1,2-a]phenanthren-7-yl)-2-(5-methoxy-1H-benzo[d][1,2,3]triazol-1-yl)ethan-1-one], the IC50 is 11.8 nM.
